# Data: US20070116781A1, “Hydrogen Cyanamide Pesticide Formulations” (priority 2005, published 2007)
# How the values were obtained:
# [1] = tested on: sicklepod; experiment: Herbicidal activity, cyanamide and citric acid, pre-emergence, covered pots; type: in vivo, Senna obtusifolia; conditions: C6H8O7 150 mg/kg soil
# Experimental: (§1) The weeds used in these tests were grown from a standard weed seed pack of common annual and perennial weeds representing an extreme weed situation. The weeds included crabgrass (Digitaria sanguinalis), yellow nutsedge (Cyperus esculentus), […] (Ipomoea spp.), pigweed (Amaranthus spp.), and other annual weeds. Observations of the effects on the weed population as a whole were made, and individual observations were made for crabgrass, yellow nutsedge, sicklepod, morningglory, and pigweed. Stock solutions of hydrogen cyanamide at 1.25% by weight and citric acid at 5.0% by weight, both in water, were prepared, the hydrogen cyanamide from a phosphate-buffered 50% aqueous solution. […] Data analyses were performed in the same manner as Example 1. The results expressed in weeds per pot are listed in Table XIV for all weeds, Table XV for crabgrass, Table XVI for yellow nutsedge, Table XVII for sicklepod, Table XVIII for morningglory, and Table XIX for pigweed, all at various application rates for hydrogen cyanamide, with and without citric acid.
# [2] = tested on: crabgrass; experiment: as above; type: in vivo, Digitaria sanguinalis; conditions: C6H8O7 150 mg/kg soil
# Experimental: as §1
# [3] = tested on: weed combination; experiment: Herbicidal activity of citric acid alone, pre-emergence, covered pots; type: in vivo
# Experimental: The weeds used in these tests were the same as those used in Example 4, and observations were made of the effects on individual weeds as well as the weed population as a whole.
# A stock solution of citric acid was made in the manner described in Example 4, and all other test parameters were likewise the same as in Example 4. Weed counts were taken from the various pots at intervals of 7, 12, and 28 days after application of the citric acid, and data analyses were performed in the same manner as Example 1.
# [4] = tested on: yellow nutsedge; experiment: Herbicidal activity, cyanamide and citric acid, pre-emergence, covered pots; type: in vivo, Cyperus esculentus; conditions: C6H8O7 150 mg/kg soil
# Experimental: as §1
# [5] = tested on: morningglory; experiment: as above; type: in vivo, Ipomoea spp.; conditions: C6H8O7 150 mg/kg soil
# Experimental: as §1
# [6] = tested on: combined weed species; experiment: as above; type: in vivo; conditions: C6H8O7 150 mg/kg soil
# Experimental: as §1
structure (smiles),measurement,setting,value
"O=C(O)CC(O)(CC(=O)O)C(=O)O [C6H8O7, 2-hydroxy-1,2,3-propanetricarboxylic acid]",Weeds Per Pot: Sicklepod,[1]; 13 d after treatment,4.6
same,Weeds Per Pot: Sicklepod,[1]; 19 d after treatment,5.6
same,Weeds Per Pot: Sicklepod,[1]; 26 d after treatment,5.3
same,Weeds Per Pot: Crabgrass,[2]; 9 d after treatment,4.6
same,Weeds Per Pot: Crabgrass,[2]; 13 d after treatment,8.6
same,Weeds Per Pot: Crabgrass,[2]; 19 d after treatment,9.3
same,Weeds Per Pot: Crabgrass,[2]; 26 d after treatment,8.1
same,Weeds Per Pot (weed combination),"[3]; 7 d after treatment, citric acid 50 mg/kg soil",16.6
same,Weeds Per Pot (weed combination),"[3]; 7 d after treatment, citric acid 100 mg/kg soil",11.1
same,Weeds Per Pot (weed combination),"[3]; 7 d after treatment, citric acid 150 mg/kg soil",14.0
same,Weeds Per Pot (weed combination),"[3]; 7 d after treatment, citric acid 200 mg/kg soil",12.2
same,Weeds Per Pot (weed combination),"[3]; 7 d after treatment, citric acid 250 mg/kg soil",11.5
same,Weeds Per Pot (weed combination),"[3]; 12 d after treatment, citric acid 50 mg/kg soil",29.8
same,Weeds Per Pot (weed combination),"[3]; 12 d after treatment, citric acid 100 mg/kg soil",25.5
same,Weeds Per Pot (weed combination),"[3]; 12 d after treatment, citric acid 200 mg/kg soil",20.6
same,Weeds Per Pot (weed combination),"[3]; 28 d after treatment, citric acid 50 mg/kg soil",28.0
same,Herbicidal activity of citric acid,"[3]; pre-emergence, covered pots",negligible except at extremely high application rates
same,Weeds Per Pot: Yellow Nutsedge,[4]; 13 d after treatment,0.7
same,Weeds Per Pot: Yellow Nutsedge,[4]; 19 d after treatment,0.9
same,Weeds Per Pot: Yellow Nutsedge,[4]; 26 d after treatment,0.9
same,Weeds Per Pot: Morningglory,[5]; 13 d after treatment,1.1
same,Weeds Per Pot: Morningglory,[5]; 19 d after treatment,0.9
same,Weeds Per Pot: Morningglory,[5]; 26 d after treatment,5.3
same,Weeds Per Pot (combined weed species),[6]; 9 d after treatment,10.6
same,Weeds Per Pot (combined weed species),[6]; 13 d after treatment,15.0
same,Weeds Per Pot (combined weed species),[6]; 19 d after treatment,16.5
same,Weeds Per Pot (combined weed species),[6]; 26 d after treatment,16.0
